Legend:
[1] = target: T1, VDR (GAL4-DBD/VDR-LBD fusion protein in HEK293T cells) (Homo sapiens, UniProt P11473); assay: GeneBLAzer cell-based VDR assay (VDR-UAS-bla HEK 293T, beta-lactamase reporter); conditions: for Activity: agonist or antagonist at VDR, compounds of formula (I) tested as mixture of diastereomers; for VDR agonistic activity (degree, in words): high throughput screen of vitamin D receptor activity
T1 construct: the targeting construct (GAL4-DBD/VDR-LBD) fusion protein engineered in a HEK293T cell line containing 7XUAS-bla; host or cells: GeneBLAzer VDR-UAS-bla HEK 293T cells
T1 sequence (P11473 127-423 limits assumed): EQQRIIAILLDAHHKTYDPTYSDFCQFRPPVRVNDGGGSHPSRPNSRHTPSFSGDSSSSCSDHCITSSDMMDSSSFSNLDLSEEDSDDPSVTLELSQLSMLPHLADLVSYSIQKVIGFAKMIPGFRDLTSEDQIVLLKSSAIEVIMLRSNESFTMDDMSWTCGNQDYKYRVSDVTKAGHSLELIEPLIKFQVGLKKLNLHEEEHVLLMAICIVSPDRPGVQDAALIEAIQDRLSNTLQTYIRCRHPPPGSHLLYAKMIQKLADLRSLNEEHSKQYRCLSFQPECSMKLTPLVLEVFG
Description: High throughput assay validation of the top ranked unique molecules from each of three PDB conformations on the basis of docking score (glide score+ionization state penalty). From this priority list 200 of the best ranked molecules, following ADMET evaluation, were purchased and subjected to binding assays. The compounds of formula (I) were obtained and tested as a mixture of diastereomers.
To determine which compounds identified by virtual screens are actually capable of regulating the transcriptional profile of VDR, we performed GeneBLAzer® Cell-Based VDR Assay (kit was bought from Invitrogen and assay performed as per instructions). Upon binding of a VDR agonist to the targeting construct (GAL4-DBD/VDR-LBD) fusion protein engineered in a HEK293T cell line containing 7XUAS-bla, a transcriptional cascade is initiated that produces β-lactamase (BLA). In the presence of the BLA LiveBLAzer™ substrate, cells expressing BLA will fluoresce blue (460 nm), while those not expressing BLA will fluoresce green (530 nm); higher […] ratio indicating the activation of VDR, whereas in presence of calcitriol (potent agonist) diminishing of this ratio indicates an antagonist behavior of the ligand. The agonist and antagonist abilities of CADD-selected compounds were determined in six-point concentration profile and compared with vehicle.
GeneBLAzer® VDR-UAS-bla HEK 293T cells were purchased from Invitrogen (Cat# K1700). The cells were cultured in growth medium in a humidified (37° C./5% CO2) incubator following the manufacture's instruction. Test compounds (ChemBridge, San Diego, Calif.) and Calcitriol (1α,25-Dihydroxyvitamin D3, Sigma) were dissolved in 100% DMSO(Sigma) at 1000-fold stock concentration and stored at −20° C., which were diluted in assay medium immediately prior to use. LiverBLAzer-FRET B/G loading kit was purchased from Invitrogen.
The GeneBLAzer® VDR-UAS-bla HEK 293T cell-based assay was used to screen 200 compounds for activity at the vitamin D receptor. The assay was run in triplicate following the manufacture's instruction. Briefly, 2×10^4 cells in 32 μl assay medium were added to each well of a 384-well black-wall assay plate (Corning Incorporated, Cat#3712). To each well was added 8 al of compound solution diluted in assay medium, the cells were incubated in a humidified (37° C./5% CO2) incubator for 5 hours. The cell-free wells (containing 32 μl assay medium only) and unstimulated cell wells were treated in parallel with the same concentration of DMSO in assay medium, which were used as background controls and blank controls, respectively. Calcitriol was used as a positive control. To each well was added 8 μl of LiverBLAzer-FRET B/G substrate mixture. The plate was covered with plate sealer and incubated at room temperature for 2 hours in the dark. Fluorescence emission was measured on SpectraMax plate reader at 460 nm and 530 nm with excitation set to 409 nm. After subtraction of background, the average value at 460 nm was divided by the average value at 530 nm to obtain the 460/530 ratio.

[2] = system: adult rat cardiomyocytes (ARCMs); assay: Phenylephrine-induced hypertrophy in adult rat cardiomyocytes in vitro (ANP level); type: cell-based; conditions: pre-treated 24 hours, then PE (100 μM) for 48 hours
Experimental: We used adult rat cardiomyocytes (ARCMs) in these studies because heart failure is predominantly a disease of the adult heart. ARCM cultures were prepared from the hearts of female Sprague-Dawley rats by enzymatic dissociation using 0.3% collagenase. Each heart yields about 3-4×10^6 viable ventricular cardiomyocytes. Freshly isolated adult cardiomyocyte cultures contain >90% rod-shaped myocytes and less than 1% of the cells are non-myocytes. The cells were used within 24 hours of plating.
We examined how the response of cardiomyocytes to specific hypertrophic stimulus, phenylephrine (PE) is modulated by pretreatment with compound 10 as compared to known activated vitamin D analog, paricalcitol (PC). In this experiment, ARCM was pre-treated with vehicle, compound 10 (different doses) or paricalcitol ([…]) for 24 hours. The cells were then exposed to PE (100 μM) or vehicle for 48 hours. After exposing the cells to hypertrophic stimulation for 48 hours, they were collected and analyzed for several well-established parameters of cardiac hypertrophy, such as tissue atrial natriuretic peptide (ANP) level.

[3] = Calcemic effects: serum ionized calcium in 1α-hydroxylase knock out mice; type: in vivo; conditions: 1α-OH KO mice; for increase in serum calcium level compared to the vehicle, long term: 0.6 μg/kg for one week (three administrations); for increase in serum calcium level compared to the vehicle, short term: 24 hours after administration, 0.60 and 3.0 μg/kg doses
Experimental: We performed short-term (24 hours) and long-term (7 days) in vivo experiments comparing the calcemic effect of compound 10 (aka VDRA) to an equivalent dose of calcitriol.
For this study, we used 1α-hydroxylase (1α-OH) knock out (KO) mice, which lack 1α-OH, an enzyme that converts 25(OH)VitD3 to the hormonally active form, 1,25-dihydroxyvitamin D3 (1,25(OH)2VitD3) or calcitriol. These mice are designed to have a low vitamin D level at baseline and are hypocalcemic.
For the short term experiment, we administered 0.6 μg/kg (therapeutic dose) and 3 μg/kg (supratherapeutic dose) of vehicle, calcitriol or compound 10, and then measured serum calcium level 24 hours after administration.
For the long-term experiment, we administered 0.6 μg/kg of vehicle, calcitriol or compound 10 for one week. We administered the drugs on Wednesday, Friday, and Monday, and measured serum calcium level on the following Tuesday.
Serum ionized calcium levels were measured using clinical grade iSTAT system (Abbott laboratories).

[4] = Inhibition of hyperparathyroidism: serum PTH in 1α-hydroxylase knock out mice; type: in vivo; conditions: 0.6 μg/kg three times a week; 1α-OH KO mice; serum PTH ELISA
Description: We performed long-term (7 days) in vivo experiments comparing the parathyroid hormone (PTH) levels following administration of compound 10 (aka VDRA) to an equivalent dose of paricalcitol (PC), a VDR agonist used to treat secondary hyperparathyroidism.
For this study, we used 1α-hydroxylase (1α-OH) knock out (KO) mice, which lack 1α-OH, an enzyme that converts 25(OH)VitD3 to the hormonally active form, 1,25-dihydroxyvitamin D3 (1,25(OH)2VitD3). These mice are designed to have a low vitamin D level at baseline and are hypocalcemic.
We administered 0.6 μg/kg of compound 10 or paricalcitol three times a week (Mon, Wed, Fri) for three weeks. Serum PTH level was measured using a PTH (intact, mouse) ELISA immunoassay (Alpco, Salem, Mass.).

[5] = Phenylephrine (PE) induced cardiac hypertrophy in mice; type: in vivo; conditions: PE 30 mg/kg/day via osmotic pump 7 days; compound 60 ng/kg 3×/week intraperitoneally
Experimental: FIGS. 5A-5C are bar graphs depicting the anti-hypertrophic potential of compound 10 (aka VDRA) in phenylephrine (PE) induced cardiac hypertrophy in mice (see Example 6). […] Mice were infused with PE (30 mg/kg/day) via osmotic pump for 7 days. In FIGS. 5A-5C (i) Con=control group with the same amount of saline infusion by osmotic pump; (ii) Vehicle or VDRA ([…]) were injected 3×/week intraperitoneally; (iii) total volume injected=50 μL/animal/injection; (iv) *=p<0.05 vs Control; (v) **=p<0.05 vs Vehicle; and (vi) N=4.
The anti-hypertrophic potential of compound 10 (aka VDRA) in phenylephrine (PE) induced cardiac hypertrophy in mice was evaluated in vivo. WT mice were infused with phenylephrine (PE) (30 mg/kg/day) via osmotic pump for 7 days. After 7 days, the mice were sacrificed, organ weighed, and hearts were obtained for mRNA processing. Vehicle or compound 10 (60 ng/kg) were injected 3×/week intraperitoneally (total volume injected=50 μL/animal/injection).

Structure (SMILES) | Activity [1] | other results
CCOC(=O)C1=C(C)NC2=C(C(=O)CC(c3ccc(Cl)cc3)C2)C1c1ccc(F)cc1 (stereo not drawn) [Compound 2] | Agonist | –
COc1ccc(C2C(C(=O)OCCOc3ccccc3)=C(C)NC3=C2C(=O)CC(c2ccccc2)C3)cc1O (stereo not drawn) [Compound 3] | Agonist | –
COCCOC(=O)C1=C(C)NC2=C(C(=O)CC(c3ccc(Cl)cc3)C2)C1c1ccc(Br)cc1 (stereo not drawn) [Compound 8] | Agonist | –
COc1ccc(C2CC(=O)C3=C(C2)NC(C)=C(C(=O)OCCOc2ccccc2)C3c2ccccc2)cc1 (stereo not drawn) [Compound 12] | Agonist | –
COCCOC(=O)C1=C(C)NC2=C(C(=O)CC(c3ccc(Cl)cc3)C2)C1c1ccc(C)cc1 (stereo not drawn) [Compound 14] | Agonist | –
CCOCCOC(=O)C1=C(C)NC2=C(C(=O)CC(c3ccc(Cl)cc3)C2)C1c1ccc(F)cc1 (stereo not drawn) [Compound 16] | Agonist | –
Cc1ccc(OCC(=O)Nc2ccc(S(=O)(=O)Nc3c(C)cc(C)cc3C)cc2)cc1 [Compound 18] | Agonist | VDR agonistic activity (degree, in words) [1]: modest agonist activity
Cc1cc(C)c(NS(=O)(=O)c2ccc(NC(=O)COc3ccc(Cl)cc3)cc2)c(C)c1 [Compound 19] | Agonist | –
Cc1cccc(OCC(=O)Nc2ccc(S(=O)(=O)Nc3c(C)cc(C)cc3C)cc2)c1 [Compound 20] | Agonist | –
CCc1ccc(OCC(=O)Nc2ccc(S(=O)(=O)Nc3cc(C)cc(C)c3)cc2)cc1 [Compound 21] | Antagonist | –
Cc1cc(C)c(NS(=O)(=O)c2ccc(NC(=O)COc3ccc(Cl)cc3Cl)cc2)c(C)c1 [Compound 22] | Antagonist | –
Cc1cccc(OCC(=O)Nc2ccc(S(=O)(=O)Nc3ccc(C)cc3C)cc2)c1 [Compound 23] | Antagonist | –
COc1ccc(NS(=O)(=O)c2ccc(NC(=O)COc3ccccc3C)cc2)cc1 [Compound 24] | Antagonist | –
C=C1/C(=C\C=C2/CCC[C@]3(C)[C@@H]([C@H](C)CCCC(C)(C)O)CC[C@@H]23)C[C@@H](O)C[C@@H]1O [calcitriol, 1α,25-Dihydroxyvitamin D3, reference compound] | – | increase in serum calcium level compared to the vehicle, long term [3]: about 45%; increase in serum calcium level compared to the vehicle, short term [3]: did not show significant increase
C[C@H](/C=C/[C@H](C)C(C)(C)O)[C@H]1CC[C@H]2/C(=C/C=C3C[C@@H](O)C[C@H](O)C3)CCC[C@]12C [paricalcitol, reference compound] | – | PTH levels [4]: significantly reduced

Second part, led by results:

Activity [1] | Structure (SMILES) | other results
Agonist | CCSCCOC(=O)C1=C(C)NC2=C(C(=O)CC(c3ccccc3)C2)C1c1ccccc1 (stereo not drawn) [Compound 1] | VDR agonistic activity (degree, in words) [1]: highest degree of agonistic activity
Antagonist | CCOC(=O)C1=C(C)NC2=C(C(=O)CC(c3ccc(OC)cc3)C2)C1c1cccc(O)c1 (stereo not drawn) [Compound 4] | –
Agonist | CCc1ccc(C2C(C(=O)OCCOc3ccccc3)=C(C)NC3=C2C(=O)CC(c2ccc(OC)cc2)C3)cc1 (stereo not drawn) [Compound 5] | –
Agonist | CCSCCOC(=O)C1=C(C)NC2=C(C(=O)CC(c3ccccc3OC)C2)C1c1ccccc1F (stereo not drawn) [Compound 6] | –
Agonist | CCOc1cc(C2C(C(=O)OCCSCC)=C(C)NC3=C2C(=O)CC(c2ccc(OC)cc2)C3)ccc1O (stereo not drawn) [Compound 7] | –
Antagonist | CCOC(=O)C1=C(C)NC2=C(C(=O)CC(c3ccc(OC)cc3)C2)C1c1ccc(O)cc1 (stereo not drawn) [Compound 9] | –
Agonist | CCSCCOC(=O)C1=C(C)NC2=C(C(=O)CC(c3ccc(Cl)cc3)C2)C1c1cccc(OC)c1 (stereo not drawn) [Compound 10] | anti-hypertrophic effect (ANP level) [2]: significant anti-hypertrophic effect; increase in serum calcium level compared to the vehicle, long term [3]: did not show any increase; increase in serum calcium level compared to the vehicle, short term [3]: did not show significant increase; PTH levels [4]: significantly reduced; PE-induced ANF (atrial natriuretic factor) activation in left ventricular tissue (mRNA) [5]: effectively suppressed; PE-induced heart weight/body weight (HW/BW) ratio [5]: effectively blocked; PE-induced lung weight/BW (LW/BW) ratio [5]: effectively blocked
Agonist | CCSCCOC(=O)C1=C(C)NC2=C(C(=O)CC(c3ccc(Cl)cc3)C2)C1c1ccccc1F (stereo not drawn) [Compound 11] | –
Agonist | CCSCCOC(=O)C1=C(C)NC2=C(C(=O)CC(c3ccc(OC)cc3)C2)C1c1ccccc1F (stereo not drawn) [Compound 13] | –
Agonist | CCSCCOC(=O)C1=C(C)NC2=C(C(=O)CC(c3ccc(Cl)cc3)C2)C1c1ccccc1OC (stereo not drawn) [Compound 15] | –
Agonist | CCSCCOC(=O)C1=C(C)NC2=C(C(=O)CC(c3ccc(OC)cc3)C2)C1c1ccccc1OC (stereo not drawn) [Compound 17] | –

— patent US9499488B2, “Vitamin D receptor agonists and uses thereof” (Beth Israel Deaconess Medical Center, Inc., priority 2011, dated 2016)
